Measurements: patent US12303509B2, “Compounds for the treatment of BRAF-associated diseases and disorders” (Pfizer Inc., priority 2020, dated 2025)
Counter-ions that a name gives are not always drawn. Like-named read-outs stand apart in the source and are kept apart here.

Experiments:
[1] = PK (free brain-to-free plasma ratio) (mouse); type: in vivo; conditions: male CD-1 mice, oral gavage 10 mg/kg, unbound brain-to-unbound plasma, read-out: B/P ratio (free)
Experimental: The ability of representative compounds to penetrate the BBB in mice was determined by evaluating the unbound brain-to-unbound plasma (also referred to as free brain-to-free plasma) concentration ratio in male CD-1 mice.
Brain compound levels were generated from oral mouse PK dosing with typical sampling times of 2, 4, 8, 12 and 24 hours post oral gavage dosing at 10 mg/kg. Brain samples were stored at −20±5° C. prior to analysis. Concentrations of test compound in mouse brain homogenate were determined by liquid chromatography tandem mass spectrometry (LC-MS/MS) following protein precipitation with acetonitrile. A 12-point calibration curve, ranging from 0.5 to 10,000 ng/mL, was prepared in duplicate. A solution of 400 μg/mL of test compound in dimethyl sulfoxide (DMSO) was serially diluted (3-fold) in 100% DMSO, and then 2.5 μL of each standard solution was added to 100 μL of naïve male CD-1 mice brain homogenate. To mimic the extraction in the standard curve, 2.5 μL of DMSO was added to all test samples. Both calibration and test brain homogenate samples were spiked with 10 μL of an IS (1 μg/mL of a structural analog). Brain homogenate was generated by adding 0.75 mL of 4:1 water:MeOH to each brain sample followed by homogenization for 1 minute with bead beater tubes a 6 m/s using an MP Fast Prep-24®. Proteins were precipitated from 100 μL of brain homogenate sample by the addition of 300 μL of acetonitrile. Samples were vortex-mixed for 5 minutes and spun in an Allegra X-12R centrifuge (Beckman Coulter, Fullerton, CA; SX4750A rotor) for 15 min at approximately 1,500×g at 4° C. A 100 μL aliquot of each supernatant was transferred via a 550 μL Personal Pipettor (Apricot Designs, Monrovia, CA) to 96-well plates and diluted 1:1 with HPLC grade water. The resulting plates were sealed with aluminum for LC-MS/MS analysis.
Brain-to-plasma ratios were calculated using the concentration of compound measured in the brain divided by the concentration of compound measured in the plasma. Brain-to-plasma ratios were always generated from a single animal and time point. Free brain-to-free plasma ratios were calculated by multiplying the brain-to-plasma ratio by the in vitro brain homogenate free fraction divided by the in vitro plasma free fraction using the following equation: (B/P)*(Bfu/Pfu). Table C provides the free brain-to-free plasma ratios of compounds disclosed herein.

[2] = biological target: full-length FLAG-tagged B-Raf(V600E) (Homo sapiens (Human), UniProt P15056, V600E); experiment: BRAF V600E enzyme assay (TR-FRET competitive displacement); type: binding
Sequence of full-length FLAG-tagged B-Raf(V600E) (P15056 whole entry V600E): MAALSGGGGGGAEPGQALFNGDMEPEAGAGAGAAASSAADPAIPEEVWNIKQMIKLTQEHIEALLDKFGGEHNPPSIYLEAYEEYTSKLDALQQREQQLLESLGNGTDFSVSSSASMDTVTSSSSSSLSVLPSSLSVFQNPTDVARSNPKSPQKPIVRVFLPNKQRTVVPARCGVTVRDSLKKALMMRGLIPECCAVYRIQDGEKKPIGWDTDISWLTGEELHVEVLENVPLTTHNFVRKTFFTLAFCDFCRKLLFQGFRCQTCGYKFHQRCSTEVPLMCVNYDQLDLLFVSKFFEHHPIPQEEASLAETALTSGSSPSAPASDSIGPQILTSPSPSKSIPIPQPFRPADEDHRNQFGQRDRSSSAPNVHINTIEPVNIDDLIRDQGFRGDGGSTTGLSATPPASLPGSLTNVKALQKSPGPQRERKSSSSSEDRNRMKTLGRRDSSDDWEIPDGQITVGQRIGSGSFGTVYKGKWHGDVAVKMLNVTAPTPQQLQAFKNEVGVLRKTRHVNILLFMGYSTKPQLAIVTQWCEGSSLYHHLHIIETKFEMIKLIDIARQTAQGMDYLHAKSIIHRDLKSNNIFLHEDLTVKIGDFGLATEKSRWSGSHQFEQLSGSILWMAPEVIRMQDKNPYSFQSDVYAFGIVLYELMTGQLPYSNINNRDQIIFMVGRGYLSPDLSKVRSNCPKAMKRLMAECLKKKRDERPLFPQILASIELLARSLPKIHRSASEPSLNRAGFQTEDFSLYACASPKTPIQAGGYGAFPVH
Summary of the method: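 Displacement of 50 nM Tracer 1710 from 5 nM full-length N-terminally FLAG-tagged B-Raf(V600E), detected by TR-FRET with 0.5 nM Eu anti-FLAG antibody, in 25 mM HEPES pH 7.4, 10 mM MgCl2, 2% DMSO; 60 min at ~22 °C. Compounds 11-point, 3-fold from 10 μM; IC50 from 4-parameter fit at 50 POC.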

[3] = biological target: P-gp (MDR1) (Homo sapiens (Human), UniProt P08183); experiment: MDR1 LLC-PK1 permeability assay: efflux ratio; type: in vitro ADME; conditions: pig
Sequence of P-gp (MDR1) (P08183 whole entry, species assumed): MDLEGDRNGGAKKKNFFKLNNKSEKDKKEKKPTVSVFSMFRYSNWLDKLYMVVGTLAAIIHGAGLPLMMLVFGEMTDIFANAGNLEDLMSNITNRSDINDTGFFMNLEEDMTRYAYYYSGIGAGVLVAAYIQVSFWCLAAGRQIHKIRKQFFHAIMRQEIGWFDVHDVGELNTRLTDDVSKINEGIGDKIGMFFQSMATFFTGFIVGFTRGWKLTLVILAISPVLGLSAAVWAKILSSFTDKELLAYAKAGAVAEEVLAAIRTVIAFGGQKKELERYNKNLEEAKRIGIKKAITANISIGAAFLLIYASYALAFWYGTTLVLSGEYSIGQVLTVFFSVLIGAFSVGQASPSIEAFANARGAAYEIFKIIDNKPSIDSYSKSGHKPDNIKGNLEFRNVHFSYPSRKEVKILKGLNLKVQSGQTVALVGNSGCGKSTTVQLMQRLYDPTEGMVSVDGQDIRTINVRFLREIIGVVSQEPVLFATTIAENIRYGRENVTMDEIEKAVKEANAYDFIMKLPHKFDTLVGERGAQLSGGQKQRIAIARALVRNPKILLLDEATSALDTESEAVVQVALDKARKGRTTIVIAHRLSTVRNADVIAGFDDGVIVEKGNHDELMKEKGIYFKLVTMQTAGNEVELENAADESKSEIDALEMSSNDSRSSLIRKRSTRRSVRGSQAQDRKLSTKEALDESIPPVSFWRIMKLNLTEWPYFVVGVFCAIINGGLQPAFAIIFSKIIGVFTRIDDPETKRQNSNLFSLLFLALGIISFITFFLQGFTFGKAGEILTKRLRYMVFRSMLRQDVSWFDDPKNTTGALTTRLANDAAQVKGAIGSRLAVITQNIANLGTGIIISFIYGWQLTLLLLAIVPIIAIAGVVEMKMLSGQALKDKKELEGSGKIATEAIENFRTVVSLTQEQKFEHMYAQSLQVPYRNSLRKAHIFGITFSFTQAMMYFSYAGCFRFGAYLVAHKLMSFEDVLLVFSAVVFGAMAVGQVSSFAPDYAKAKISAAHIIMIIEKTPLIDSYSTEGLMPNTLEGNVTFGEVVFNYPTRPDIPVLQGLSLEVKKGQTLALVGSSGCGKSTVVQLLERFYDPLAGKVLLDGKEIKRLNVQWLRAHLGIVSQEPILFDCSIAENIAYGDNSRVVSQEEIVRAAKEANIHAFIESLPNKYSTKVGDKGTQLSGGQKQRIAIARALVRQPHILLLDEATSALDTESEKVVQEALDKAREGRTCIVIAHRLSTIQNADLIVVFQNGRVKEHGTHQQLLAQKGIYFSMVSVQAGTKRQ
Excerpt: (§1) Final organic concentration in the assay was 1%.

[4] = test system: H1755 cells; experiment: Cellular phospho-ERK inhibition assay in H1755 cells; type: cell-based; conditions: Homo sapiens, NCI-H1755, 2 hours treatment, read-out: H1755 Cell IC50
Summary of the method: (§2)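 A375 (DMEM) or H1755 (RPMI) cells in 10% FBS treated 2 h at 37 °C with 9-point series, 66 pM–10 μM, 0.25% DMSO. Phospho-ERK1/2 (Thr202/Tyr204) measured by In Cell Western, normalised to GAPDH and to DMSO and 10 μM binimetinib controls; IC50 by 4-parameter fit.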

[5] = test system: A375 cells; experiment: Cellular phospho-ERK inhibition assay in A375 cells; type: cell-based; conditions: Homo sapiens, A-375, A375 cells (head prints A357), 2 hours treatment, read-out: A357 cell IC50
Summary of the method: as §2

[6] = biological target: BCRP (Homo sapiens (Human), UniProt Q9UNQ0); experiment: BCRP MDCKII permeability assay: efflux ratio; type: in vitro ADME; conditions: dog
Sequence of BCRP (Q9UNQ0 whole entry): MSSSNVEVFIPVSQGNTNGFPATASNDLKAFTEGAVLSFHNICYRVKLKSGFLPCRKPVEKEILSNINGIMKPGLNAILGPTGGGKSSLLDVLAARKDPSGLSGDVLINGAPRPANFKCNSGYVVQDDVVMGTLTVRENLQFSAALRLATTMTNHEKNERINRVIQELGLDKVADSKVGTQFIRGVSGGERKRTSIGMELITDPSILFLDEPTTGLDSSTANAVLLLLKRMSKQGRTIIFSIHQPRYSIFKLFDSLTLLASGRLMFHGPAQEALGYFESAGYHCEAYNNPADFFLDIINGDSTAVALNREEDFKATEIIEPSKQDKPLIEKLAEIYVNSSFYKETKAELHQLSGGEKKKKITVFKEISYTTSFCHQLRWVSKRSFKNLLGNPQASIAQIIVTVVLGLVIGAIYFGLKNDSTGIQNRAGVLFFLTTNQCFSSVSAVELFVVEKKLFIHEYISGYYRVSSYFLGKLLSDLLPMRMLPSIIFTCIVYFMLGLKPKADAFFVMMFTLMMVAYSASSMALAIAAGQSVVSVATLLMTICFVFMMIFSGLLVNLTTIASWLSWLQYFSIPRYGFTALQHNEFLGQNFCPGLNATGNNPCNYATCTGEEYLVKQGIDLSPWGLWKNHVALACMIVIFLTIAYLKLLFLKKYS

[7] = MDR1 LLC-PK1 and BCRP MDCKII permeability assay: permeability coefficient (Papp); type: in vitro ADME
Excerpt: as §1

[8] = averaged IC50, TR-FRET tracer displacement, 60 min

| Compound | Kp [1] | IC50 [2, 8] [nM] | efflux ratio at 2 h, 1 µM [3] | IC50 [4] [nM] | IC50 [5] [nM] | efflux ratio at 2 h, 1 µM [6] | Papp at 2 h, 1 µM [7] [×10⁻⁶ cm/s] | IC50 [2] [nM] |
| --- | --- | --- | --- | --- | --- | --- | --- | --- |
| Cn1cnc2ccc(Nc3c(F)ccc(NS(=O)(=O)N4CC[C@@H](F)C4)c3Cl)c(Cl)c2c1=O [Example 19, (R)-N-(2-chloro-3-((5-chloro-3-methyl-4-oxo-3,4-dihydroquinazolin-6-yl)amino)-4-fluorophenyl)-3-fluoropyrrolidine-1-sulfonamide] | 0.61 to 0.83 | 4 | 2.1 | 39 | 5 | 1.3 | 30 |  |
| Cn1cnc2ccc(Oc3c(F)ccc(NS(=O)(=O)N4CC[C@@H](F)C4)c3Cl)c(F)c2c1=O [Example 20, (R)-N-(2-chloro-4-fluoro-3-((5-fluoro-3-methyl-4-oxo-3,4-dihydroquinazolin-6-yl)oxy)phenyl)-3-fluoropyrrolidine-1-sulfonamide] | 0.4 to 0.58 | 3 | 2.2 | 29 | 2 | 1.8 | 37 |  |
| CO[C@@H]1CCN(S(=O)(=O)Nc2ccc(F)c(Oc3ccc4ncn(C)c(=O)c4c3Cl)c2Cl)C1 [Example 37, (R)-N-(2-chloro-3-((5-chloro-3-methyl-4-oxo-3,4-dihydroquinazolin-6-yl)oxy)-4-fluorophenyl)-3-methoxypyrrolidine-1-sulfonamide] | 0.66 to 0.73 | 4 | 2.4 | 33 | 4 | 1.5 | 29 |  |
| Cn1cnc2ccc(Nc3c(F)ccc(NS(=O)(=O)N4CCCC4)c3Cl)c(F)c2c1=O [Example 7, N-(2-chloro-4-fluoro-3-((5-fluoro-3-methyl-4-oxo-3,4-dihydroquinazolin-6-yl)amino)phenyl)pyrrolidine-1-sulfonamide trifluoroacetate] | 0.37 to 0.61 | 12 | 1.7 | 31 | 5 | 2.2 | 29 |  |
| Cn1cnc2ccc(Nc3c(F)ccc(NS(=O)(=O)N4CCCC4)c3Cl)c(Cl)c2c1=O [Example 12, N-(2-chloro-3-((5-chloro-3-methyl-4-oxo-3,4-dihydroquinazolin-6-yl)amino)-4-fluorophenyl)pyrrolidine-1-sulfonamide trifluoroacetate] | 0.34 to 0.39 | 7 | 1.1 | 97 | 8 | 0.9 | 28 |  |
| Cn1cnc2ccc(Oc3c(F)ccc(NS(=O)(=O)N4CCCC4)c3Cl)c(F)c2c1=O [Example 44, N-(2-chloro-4-fluoro-3-((5-fluoro-3-methyl-4-oxo-3,4-dihydroquinazolin-6-yl)oxy)phenyl)pyrrolidine-1-sulfonamide trifluoroacetate] | 0.35 to 0.47 | 2 | 1.4 | 56 | 3 | 0.9 | 34 |  |
| Cn1cnc2ccc(Nc3c(F)c(F)cc(NS(=O)(=O)N4CCCC4)c3Cl)c(F)c2c1=O [Example 40, N-(2-chloro-4,5-difluoro-3-((5-fluoro-3-methyl-4-oxo-3,4-dihydroquinazolin-6-yl)amino)phenyl)pyrrolidine-1-sulfonamide trifluoroacetate] | 0.55 to 0.72 | 2 | 2 | 50 | 4 | 2.3 | 29 |  |
| Cn1cnc2ccc(Nc3c(F)ccc(NS(=O)(=O)N4CC5CC4C5)c3Cl)c(Cl)c2c1=O [Example 9, N-(2-chloro-3-((5-chloro-3-methyl-4-oxo-3,4-dihydroquinazolin-6-yl)amino)-4-fluorophenyl)-2-azabicyclo[2.1.1]hexane-2-sulfonamide trifluoroacetate] | 0.36 to 0.4 | 7 | 1.1 | 85 | 14 | 1.1 | 29 |  |
| Cn1cnc2ccc(Nc3c(F)c(F)cc(NS(=O)(=O)N4CC5CC4C5)c3Cl)c(F)c2c1=O [Example 41, N-(2-chloro-4,5-difluoro-3-((5-fluoro-3-methyl-4-oxo-3,4-dihydroquinazolin-6-yl)amino)phenyl)-2-azabicyclo[2.1.1]hexane-2-sulfonamide trifluoroacetate] | 0.35 to 0.45 | 3 | 1.9 | 42 | 5 | 2.5 | 29 |  |
| CO[C@@H]1CCN(S(=O)(=O)Nc2ccc(F)c(Nc3ccc4ncn(C)c(=O)c4c3Cl)c2Cl)C1 [Example 6, (R)-N-(2-chloro-4-fluoro-3-((5-chloro-3-methyl-4-oxo-3,4-dihydroquinazolin-6-yl)amino)phenyl)-3-methoxypyrrolidine-1-sulfonamide] | 0.87 to 1.76 | 13 | 1.9 | 66 | 6 | 1.3 | 27 |  |
| CO[C@@H]1CCN(S(=O)(=O)Nc2ccc(F)c(Oc3ccc4ncn(C)c(=O)c4c3F)c2Cl)C1 [Example 48, (R)-N-(2-chloro-4-fluoro-3-((5-fluoro-3-methyl-4-oxo-3,4-dihydroquinazolin-6-yl)oxy)phenyl)-3-methoxypyrrolidine-1-sulfonamide trifluoroacetate] | 0.29 to 0.33 | 3 | 2.2 | 36 | 1 | 1.7 | 29 |  |
| COC1CN(S(=O)(=O)Nc2ccc(F)c(Nc3ccc4ncn(C)c(=O)c4c3F)c2Cl)C1 [Example 130, N-(2-chloro-4-fluoro-3-((5-fluoro-3-methyl-4-oxo-3,4-dihydroquinazolin-6-yl)amino)phenyl)-3-methoxyazetidine-1-sulfonamide] | 0.12 to 0.16 | 11 | 2.3 | 38 | 7 | 7.6 | 30 |  |
| CCN(C)S(=O)(=O)Nc1ccc(F)c(Oc2ccc3ncn(C)c(=O)c3c2C)c1Cl [Example 68, 6-(2-Chloro-3-{[ethyl(methyl)sulfamoyl]amino}-6-fluorophenoxy)-3,5-dimethyl-3,4 dihydroquinazolin-4-one] |  |  | 0.7 | 286 | 64 | 1 | 25 | 21 |
| Cc1c(Nc2c(F)ccc(NS(=O)(=O)N3CCC(F)(F)C3)c2Cl)ccc2ncn(C)c(=O)c12 [Example 93, N-(2-chloro-3-((3,5-dimethyl-4-oxo-3,4-dihydroquinazolin-6-yl)amino)-4-fluorophenyl)-3,3-difluoropyrrolidine-1-sulfonamide] |  | 3 | 1.4 | 195 | 60 | 0.8 | 33 |  |
